The record followed here is US20020026053A1, “Novel 3-(substituted) -2- indolinones compounds and use thereof as inhibitors of protein kinase activity” (priority 1997, published 2002).

The experiment concerns the target T1, Met receptor (EGFR/Met chimeric cells, EMR) (Homo sapiens, UniProt P08581).
T1 construct: expressed in transfected cells; the other entry of the earlier key: EGFR (P00533, Epidermal growth factor receptor)
Kind of experiment: Met Autophosphorylation Assay. It is filed as biochemical. An outline of the steps:
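Met phosphorylation was measured by capture ELISA. Lysates (90 μg/100 μl, HNTG plus 1 mM PMSF) from transiently transfected EGFR/Met chimera (EMR) cells were bound for 60 min at room temperature to wells holding rabbit anti-Met (C-28) on goat anti-rabbit coat. Phosphotyrosine was the read-out.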

T1 sequence (P08581 with tags, fused parts or gaps): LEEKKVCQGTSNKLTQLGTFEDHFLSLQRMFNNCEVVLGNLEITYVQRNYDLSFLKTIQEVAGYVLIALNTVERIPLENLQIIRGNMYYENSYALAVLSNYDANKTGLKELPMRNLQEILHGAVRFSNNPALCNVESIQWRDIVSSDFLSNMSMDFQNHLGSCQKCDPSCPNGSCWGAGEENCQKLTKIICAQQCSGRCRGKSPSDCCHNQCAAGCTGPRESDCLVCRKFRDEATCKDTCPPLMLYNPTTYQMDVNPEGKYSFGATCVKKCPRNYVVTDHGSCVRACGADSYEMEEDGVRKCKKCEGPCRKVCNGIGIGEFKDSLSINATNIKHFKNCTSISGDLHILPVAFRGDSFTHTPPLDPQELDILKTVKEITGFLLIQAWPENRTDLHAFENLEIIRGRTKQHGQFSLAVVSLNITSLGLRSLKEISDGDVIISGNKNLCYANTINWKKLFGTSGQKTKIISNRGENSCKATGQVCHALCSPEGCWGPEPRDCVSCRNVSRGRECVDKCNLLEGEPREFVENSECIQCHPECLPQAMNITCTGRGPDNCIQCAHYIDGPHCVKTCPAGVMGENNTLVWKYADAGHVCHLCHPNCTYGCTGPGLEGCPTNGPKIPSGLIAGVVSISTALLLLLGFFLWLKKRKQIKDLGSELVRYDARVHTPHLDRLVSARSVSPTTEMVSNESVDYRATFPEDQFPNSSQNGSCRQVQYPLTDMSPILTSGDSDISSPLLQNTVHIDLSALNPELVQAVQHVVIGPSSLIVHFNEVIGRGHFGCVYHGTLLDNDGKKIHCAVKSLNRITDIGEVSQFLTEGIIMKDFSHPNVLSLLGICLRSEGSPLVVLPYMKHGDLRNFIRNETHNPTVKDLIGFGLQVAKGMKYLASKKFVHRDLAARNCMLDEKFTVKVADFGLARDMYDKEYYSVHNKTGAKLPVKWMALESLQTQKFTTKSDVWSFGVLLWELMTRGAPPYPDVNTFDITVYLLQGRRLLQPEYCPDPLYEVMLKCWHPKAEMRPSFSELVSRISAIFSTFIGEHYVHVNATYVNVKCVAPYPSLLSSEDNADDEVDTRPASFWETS

Regarding `O=C1Nc2ccc(S(=O)(=O)Nc3ccc(C(F)(F)F)cc3)cc2C1=Cc1cc(Cl)cc(Cl)c1O` [10734/E03], the “Met Kinase % Inhibition (P.130)” value is listed as 99.3%. As for `O=C1Nc2ccc(S(=O)(=O)Nc3ccc(C(F)(F)F)cc3)cc2C1=Cc1cc(Cl)ccc1O` [10734/E04], the figure is 88.9%; as for `CCN(CC)c1ccc(C=C2C(=O)Nc3ccc(S(=O)(=O)Nc4ccc(C(F)(F)F)cc4)cc32)c(O)c1` [10734/E05], 63.6%. As for `O=C1Nc2ccc(S(=O)(=O)Nc3ccc(C(F)(F)F)cc3)cc2C1=Cc1ccc([N+](=O)[O-])cc1` [10734/E06], the figure is 50.6%; as for `O=C1Nc2ccc(S(=O)(=O)Nc3ccc(C(F)(F)F)cc3)cc2C1=Cc1cc(Br)cc(Br)c1O` [10734/E07], 100.8%; as for `O=C1Nc2ccc(S(=O)(=O)Nc3ccc(C(F)(F)F)cc3)cc2C1=Cc1cccc(F)c1O` [10734/E08], 89.1%. As for `O=C1Nc2ccc(S(=O)(=O)Nc3ccc(C(F)(F)F)cc3)cc2C1=Cc1ccc(O)c(Br)c1` [10734/E09], the “Met Kinase % Inhibition (P.130)” value worked out at 96.2%. As for `CC(C)(C)c1ccc(C=C2C(=O)Nc3ccc(S(=O)(=O)Nc4ccc(C(F)(F)F)cc4)cc32)cc1` [10734/E10], the figure is 27.9%; as for `O=C1Nc2ccc(S(=O)(=O)Nc3ccc(C(F)(F)F)cc3)cc2C1=Cc1ccc(Br)s1` [10734/E11], 67.1%; as for `CCOc1cccc(C=C2C(=O)Nc3ccc(S(=O)(=O)N4CCOCC4)cc32)c1O` [10734/F02], 55.0%. For the molecule `O=C1Nc2ccc(S(=O)(=O)N3CCOCC3)cc2C1=Cc1cc(Cl)cc(Cl)c1O` [10734/F03], the “Met Kinase % Inhibition (P.130)” value was determined as 86.8%. On to `O=C1Nc2ccc(S(=O)(=O)N3CCOCC3)cc2C1=Cc1cc(Cl)ccc1O` [10734/F04], for which the “Met Kinase % Inhibition (P.130)” value turned out to be 76.5%. As for `CCN(CC)c1ccc(C=C2C(=O)Nc3ccc(S(=O)(=O)N4CCOCC4)cc32)c(O)c1` [10734/F05], the “Met Kinase % Inhibition (P.130)” value worked out at 73.8%.

Regarding `O=C1Nc2ccc(S(=O)(=O)N3CCOCC3)cc2C1=Cc1ccc([N+](=O)[O-])cc1` [10734/F06], the “Met Kinase % Inhibition (P.130)” value stood at 64.2%. `O=C1Nc2ccc(S(=O)(=O)N3CCOCC3)cc2C1=Cc1cc(Br)cc(Br)c1O` [10734/F07]: the “Met Kinase % Inhibition (P.130)” value is listed as 95.7%.

Consider `O=C1Nc2ccc(S(=O)(=O)N3CCOCC3)cc2C1=Cc1cccc(F)c1O` [10734/F08], for which the “Met Kinase % Inhibition (P.130)” value is 66.3%. Take `O=C1Nc2ccc(S(=O)(=O)N3CCOCC3)cc2C1=Cc1ccc(O)c(Br)c1` [10734/F09]: the “Met Kinase % Inhibition (P.130)” value is on record as 93.9%.

In the case of `CC(C)(C)c1ccc(C=C2C(=O)Nc3ccc(S(=O)(=O)N4CCOCC4)cc32)cc1` [10734/F10], the “Met Kinase % Inhibition (P.130)” value was 44.8%. `O=C1Nc2ccc(S(=O)(=O)N3CCOCC3)cc2C1=Cc1ccc(Br)s1` [10734/F11]: the “Met Kinase % Inhibition (P.130)” value turned out to be 47.3%. As for `CCOc1cccc(C=C2C(=O)Nc3ccc(CCCl)cc32)c1O` [10734/G02], the figure is 63.6%. For `O=C1Nc2ccc(CCCl)cc2C1=Cc1cc(Cl)cc(Cl)c1O` [10734/G03], the “Met Kinase % Inhibition (P.130)” value was 93.4%.

With `O=C1Nc2ccc(CCCl)cc2C1=Cc1cc(Cl)ccc1O` [10734/G04], the “Met Kinase % Inhibition (P.130)” value is 72.1%. Then `CCN(CC)c1ccc(C=C2C(=O)Nc3ccc(CCCl)cc32)c(O)c1` [10734/G05], with 57.7%; and `O=C1Nc2ccc(CCCl)cc2C1=Cc1ccc([N+](=O)[O-])cc1` [10734/G06], with 43.1%; and `O=C1Nc2ccc(CCCl)cc2C1=Cc1cc(Br)cc(Br)c1O` [10734/G07], with 96.6%. In the case of `O=C1Nc2ccc(CCCl)cc2C1=Cc1cccc(F)c1O` [10734/G08], the “Met Kinase % Inhibition (P.130)” value turned out to be 82.2%. Then `O=C1Nc2ccc(CCCl)cc2C1=Cc1ccc(O)c(Br)c1` [10734/G09], with 84.7%. Then `CC(C)(C)c1ccc(C=C2C(=O)Nc3ccc(CCCl)cc32)cc1` [10734/G10], with 19.3%. Take `O=C1Nc2ccc(CCCl)cc2C1=Cc1ccc(Br)s1` [10734/G11]: the “Met Kinase % Inhibition (P.130)” value is 20.2%. For the molecule `CCOc1cccc(C=C2C(=O)Nc3c(Br)cc(Br)c(C)c32)c1O` [10734/H02], the “Met Kinase % Inhibition (P.130)” value worked out at 48.3%. Then `Cc1c(Br)cc(Br)c2c1C(=Cc1cc(Cl)cc(Cl)c1O)C(=O)N2` [10734/H03], with 90.3%. `Cc1c(Br)cc(Br)c2c1C(=Cc1cc(Cl)ccc1O)C(=O)N2` [10734/H04]: the “Met Kinase % Inhibition (P.130)” value is given as 64.2%.
